As a reminder, the IC50 is the concentration that inhibits the measured activity by half.

This is an account of results in patent publication US12091425B2 (AMGEN INC., priority 2016, dated 2024).

For data set [1], the target named is T1, Mcl-1/Bim interaction, recombinant human Mcl-1 (171-327) (Homo sapiens, UniProt Q07820).
T1 construct: made in house
The data set is described as follows: Cell free Mcl-1: Bim Affinity Assay (Mcl-1 HTRF). It counts as binding. In short, it runs like this: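 Read-out is time-resolved FRET after overnight incubation, using a biotin-labelled peptide from human Bim (51-76) as the binding partner; IC50 was derived from competition curves.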
A general note: In TR-FRET formats the signal depends on donor and acceptor labels being close together.

For data set [2], the system named is OPM-2 human multiple myeloma cell line. Nature of the data set: Cell Viability Assay (OPM-2 10 FBS). Type of data set: cell-based. The following applies: Homo sapiens, OPM-2, 16 h, OPM-2 cells, 16 h, CellTiter-Glo. The essentials:
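OPM-2 myeloma cells, 3000/well in medium with 10% FBS, exposed to serially diluted compounds for 16 h at 37° C./5% CO2. Viability read by CellTiter-Glo luminescence; IC50 from 4-parameter logistic fit.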
A general note: Cellular ATP, detected with luciferase, serves as a proxy for viable cell number.

The mark [3] stands for this setting: cell free Mcl-1:Bim TR-FRET, recombinant human Mcl-1 (171-327).
Setting [4] is: TR-FRET, 0.1 nM Mcl-1 (171-327), 0.05 nM biotin-Bim (51-76).

Where two headings read alike, the source gives them in different places.

T1 sequence (Q07820 171-327): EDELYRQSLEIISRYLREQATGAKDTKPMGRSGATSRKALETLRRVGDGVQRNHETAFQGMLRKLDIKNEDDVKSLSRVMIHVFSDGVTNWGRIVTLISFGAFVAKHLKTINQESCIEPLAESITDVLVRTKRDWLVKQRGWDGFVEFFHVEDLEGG

`CC[C@@H]1CC/C=C/C[C@H](O)[C@@H]2CC[C@H]2CN2C[C@@]3(CCCc4cc(Cl)ccc43)COc3ccc(cc32)C(=O)NS1(=O)=O` [Example 553, (1S,3′R,6′R,7′S,9′E,13′R)-6-chloro-13′-ethyl-7′-hydroxy-3,4-dihydro-2H,16′H-spiro[naphthalene-1,23′-[21]oxa[14]thia[1,15]diazatetracyclo[15.7.2.0^3,6.0^20,25]hexacosa[9,17,19,25]tetraen]-16′-one 14′,14′-dioxide] displayed a ring closure, isolated yield (from C=CCC[C@@H](CC)S(=O)(=O)NC(=O)c1ccc2c(c1)N(C[C@@H]1CC[C@H]1[C@@H](O)CC=C)C[C@@]1(CCCc3cc(Cl)ccc31)CO2, rcm bond, 17-membered ring, Hoveyda-Grubbs II (10 mol%), DCM, 1.4 mM, 45.0 °C, 6.0 h) of 38%. In addition, the IC50 in data set [1] (setting [3]) was determined as 4 nM.

For the compound `O=C1NS(=O)(=O)CC/C=C/[C@@H](O)[C@@H]2CC[C@H]2CN2C[C@@]3(CCCc4cc(Cl)ccc43)COc3ccc1cc32` [Example 221, (1S,3′R,6′R,7′R,8′E)-6-chloro-7′-hydroxy-3,4-dihydro-2H,14′H-spiro[naphthalene-1,21′-[19]oxa[12]thia[1,13]diazatetracyclo[13.7.2.0^3,6.0^18,23]tetracosa [8,15,17,23]tetraen]-14′-one 12′,12′-dioxide], where the note is “from C=CCCS(=O)(=O)NC(=O)c1ccc2c(c1)N(C[C@@H]1CC[C@H]1[C@H](O)/C=C/CCC)C[C@@]1(CCCc3cc(Cl)ccc31)CO2, rcm bond, 15-membered ring, Hoveyda-Grubbs II (portionwise), AcOH, 5.2 mM”, the ring closure, isolated yield worked out at 48%. Further, the IC50 in data set [1] (setting [4]) is 10.8 nM.

The compound `C[C@@H]1CC/C=C/[C@H](O)[C@@H]2CC[C@H]2CN2C[C@@]3(CCCc4nc(Cl)ccc43)COc3ccc(cc32)C(=O)NS1(=O)=O` [Example 791, (3R,6R,7S,8E,12R,22S)-2′-chloro-7-hydroxy-12-methyl-7′,8′-dihydro-6′H,15H-spiro[20-oxa-13-thia-1,14-diazatetracyclo [14.7.2.0^3,6.0^19,24]pentacosa-8,16,18,24-tetraene-22,5′-quinolin]-15-one 13,13-dioxide] displayed a ring closure, isolated yield (from C=CCC[C@@H](C)S(=O)(=O)NC(=O)c1ccc2c(c1)N(C[C@@H]1CC[C@H]1[C@@H](O)/C=C/CCC)C[C@@]1(CCCc3nc(Cl)ccc31)CO2, rcm bond, 16-membered ring, Hoveyda-Grubbs II, AcOH, 1.98 mM) of 40%. For the same compound, the IC50 came out at 6.21 nM in data set [1] (setting [3]) and 23300 nM in data set [2].

Under “from C[C@H]1[C@H](/C=C/[C@H](O)[C@@H]2CC[C@H]2CN2C[C@@]3(CCCc4cc(Cl)ccc43)COc3ccc(C(=O)O)cc32)CCC[C@H]1S(N)(=O)=O, amide bond, 16-membered ring, EDC/DMAP, DCM, 2.0 mM, 16.0 h”, `C[C@H]1[C@@H]2/C=C/[C@H](O)[C@@H]3CC[C@H]3CN3C[C@@]4(CCCc5cc(Cl)ccc54)COc4ccc(cc43)C(=O)NS(=O)(=O)[C@@H]1CCC2` [Example 112, (1S,3′R,6′R,7′S,8′E,10′S,14′R,28′S)-6-chloro-7′-hydroxy-28′-methyl-3,4-dihydro-2H,17′H-spiro[naphthalene-1,24′-[22]oxa[15]thia[1,16]diazapentacyclo[16.7.2.1^10,14.0^3,6.0^21,26]octacosa[8,18,20,26]tetraen]-17′-one 15′,15′-dioxide] returned a ring closure, isolated yield of 21%. Also, the IC50 was found to be 0.63 nM in data set [1] (setting [4]) and 172 nM in data set [2].

Under “from C=CC[C@@H](C)S(=O)(=O)NC(=O)c1ccc2c(c1)N(C[C@@H]1CC[C@H]1[C@@H](O)C=C)C[C@@]1(CCCc3cc(Cl)ccc31)CO2, rcm bond, 15-membered ring, Hoveyda-Grubbs II, DCM, 2.65 mM, 7.0 h”, `C[C@@H]1C/C=C/[C@H](O)[C@@H]2CC[C@H]2CN2C[C@@]3(CCCc4cc(Cl)ccc43)COc3ccc(cc32)C(=O)NS1(=O)=O` [Example 758, (1S,3′R,6′R,7′S,8′E,11′R)-6-chloro-7′-hydroxy-11′-methyl-3,4-dihydro-2H,14′H-spiro[naphthalene-1,21′-[19]oxa[12]thia[1,13]diazatetracyclo[13.7.2.0^3,6.0^18,23]tetracosa[8,15,17,23]tetraen]-14′-one 12′,12′-dioxide] gave a ring closure, isolated yield of 23.8%. Moreover, the IC50 is 0.46 nM in data set [1] (setting [3]) and 1180 nM in data set [2].

`CC[C@@H]1CC/C=C/[C@H](O)[C@@H]2CC[C@H]2CN2C[C@@]3(CCCc4nc(Cl)ccc43)COc3ccc(cc32)C(=O)NS1(=O)=O` [Example 798, (3R,6R,7S,8E,12R,22S)-2′-chloro-12-ethyl-7-hydroxy-7′,8′-dihydro-6′H,15H-spiro[20-oxa-13-thia-1,14-diazatetracyclo[14.7.2.0^3,6.0^19,24]pentacosa-8,16,18,24-tetraene-22,5′-quinolin]-15-one 13,13-dioxide] came in with a ring closure, isolated yield (from C=CCC[C@@H](CC)S(=O)(=O)NC(=O)c1ccc2c(c1)N(C[C@@H]1CC[C@H]1[C@@H](O)/C=C/CCC)C[C@@]1(CCCc3nc(Cl)ccc31)CO2, rcm bond, 16-membered ring, Hoveyda-Grubbs II, AcOH, 2.04 mM) of 39%. Also, the IC50 in data set [1] (setting [3]) was 2.42 nM; in data set [2], 9260 nM.
